Results: ChEMBL document CHEMBL3046937, “Mass spectral characterization of fatty acid amides from alfalfa trichomes and their deterrence against the potato leafhopper” (Phytochemistry, 2005)
The source made the active and inactive calls. The rule behind the calls is not given here.

Assays:
Type in all cases: functional, organism-based
Empoasca fabae [1] = assay: Food deterrence activity against Empoasca fabae (potato leafhopper) assessed as deterring insect settling at 100 ug/cm2 through compound application to surface of sachet containing artificial diet measured at 15 min interval over next 350 min by two-choice bioassay
Empoasca fabae [2] = assay: Food deterrence activity against Empoasca fabae (potato leafhopper) assessed as deterring insect settling at 12.5 ug/cm2 through compound application to surface of sachet containing artificial diet measured at 15 min interval over next 350 min by two-choice bioassay
Empoasca fabae [3] = assay: Food deterrence activity against Empoasca fabae (potato leafhopper) assessed as deterring insect settling at 25 ug/cm2 through compound application to surface of sachet containing artificial diet measured at 15 min interval over next 350 min by two-choice bioassay
Empoasca fabae [4] = assay: Food deterrence activity against Empoasca fabae (potato leafhopper) assessed as deterring insect settling at 50 ug/cm2 through compound application to surface of sachet containing artificial diet measured at 15 min interval over next 350 min by two-choice bioassay
Empoasca fabae [5] = assay: Food deterrence activity against Empoasca fabae (potato leafhopper) assessed as deterring insect settling at 12.5 to 100 ug/cm2 through compound application to surface of sachet containing artificial diet measured at 15 min interval over next 350 min by two-choice bioassay

CCCCC/C=C\C/C=C\CCCCCCCC(=O)NCCC(C)C
Activity (Empoasca fabae [1]): Active | Activity (Empoasca fabae [2]): inactive | Activity (Empoasca fabae [3]): Active | Activity (Empoasca fabae [4]): Active | Activity (Empoasca fabae [5]): Dose-dependent effect
